The source of these data is US20050239751A1, “Heterocyclic anti-viral compounds comprising metabolizable moieties and their uses” (Rigel Pharmaceuticals, Inc., priority 2004, published 2005).

The IC50 is the point on the concentration scale where inhibition reaches its midpoint.

The first test has as its system HCV replicon in 5-2 Luc replicon-comprising cells. As to the kind of experiment: HCV replicon assay (luciferase; HEPC_REPLICON-LUC). Conditions: Table 15; read-out: Replicon (IC50). The class given is cell-based, Hepatitis C virus. An excerpt:
In one embodiment, the inhibitory activity of the metabolically active agent of the prodrug can be confirmed in a replicon assay that assesses the ability of a test compound to block or inhibit HCV replication in replicon cells. One example of a suitable replicon assay is the liver cell-line Huh 7-based replicon assay described in Lohmann et al., 1999, Science 285:110-113. A specific example of this replicon assay which utilizes luciferase translation is provided in the Examples Section. In one embodiment of this assay, the amount of test prodrug that yields a 50% reduction in translation as compared to a control cell (IC50) may be determined.
The inhibitory activity of certain prodrugs of the invention, which may inhibit HCV translation or replication prior to metablism and/or are metabolized into active agents, was confirmed using an HCV replicon assay. The HCV replicon can include such features as the HCV 5′ untranslated region including the HCV IRES, the HCV 3′ untranslated region, selected HCV genes encoding HCV polypeptides, selectable markers, and a reporter gene such as luciferase, GFP, etc. In the assay, actively dividing 5-2 Luc replicon-comprising cells (obtained from Ralf Bartenschlager; see Lohmann et al., 1999, Science 285:110-113) were seeded at a density of between about 5,000 and 7,500 cells/well onto 96 well plates (about 90 µl of cells per well) and incubated at 37° C. and 5% CO2 for 24 hours. Then, the test prodrug (in a volume of about 10 PI) was added to the wells at various concentrations and the cells were incubated for an additional 24-48 hours before luciferase assay. The media was aspirated from each well and Bright-Glo (Promega, Madison, WI) luciferase assay reagents were added to each well according to the manufacturer's instructions. Briefly, the BrightGlo reagent was diluted 1:1 with PBS and 100 µl of diluted reagent was added to each well. After 5 min of incubation at room temperature, luciferin emission was quantified with a luminometer. In this assay, the amount of test prodrug that yielded a 50% reduction in luciferase emission (IC50) was determined. This IC50 value may represent the antiviral activity of the prodrug itself, the activity of prodrug transformed into its active metabolized form, or a combination of the two.
In TABLES 3 through 12, a value of “+” indicates an IC50 of 10 μM or less in the specified assay; a value of “−” indicates an IC50 of greater than 10 μM in the specified assay.
(Replicon systems follow genome replication, usually without infectious particles.)
Consider “2′,2′-Dichloro-N-[3-[3-(2,6-dichlorophenyl)-5-isoxazolyl]-4-(pyridyl)]-N-[2-(4-fluorobenzoyl)ethyl] Acetamide [126a]”, for which the half-inhibitory concentration (IC50) was not above 10 µM.
Regarding “2′,2′-Dichloro-N-[3-[3-(2,6-dichlorophenyl)-5-isoxazolyl]phenyl]-N-[2-(4-fluorobenzoyl)ethyl] Acetamide [100a]”, the IC50 was not above 10 µM.
“2′,2′-Dichloro-N-[3-[3-(2,6-dichlorophenyl)-5-isoxazolyl]phenyl]-N-[2-(4-methoxybenzoyl)ethyl] Acetamide [Cpd. 103a]”: the IC50 is not above 10 µM.
On the same count and under the same terms, the figure for “2′,2′-Dichloro-N-[3-[3-(2,6-dichlorophenyl)-5-isoxazolyl]phenyl]-N-[2-(benzoyl)ethyl] Acetamide [Cpd. 102a]” is not above 10 µM; for “2′,2′-Dichloro-N-[3-[3-(2-chloro-6-hydroxycarbonylphenyl)-5-isoxazolyl]phenyl]-N-[2-(4-fluorobenzoyl)ethyl] Acetamide [Cpd. 129a]” it is not above 10 µM.
On to “2′,2′-Dichloro-N-[3-[3-(2-chloro-6-methoxycarbonylphenyl)-5-isoxazolyl]phenyl]-N-[2-(4-fluorobenzoyl)ethyl] Acetamide [Cpd. 133a]”, for which the half-maximal inhibitory concentration (IC50) is not above 10 µM.
Consider “2′,2′-Dichloro-N-[3-[3-(2-chloro-6-methoxyphenyl)-5-isoxazolyl]phenyl]-N-[2-(4-fluorobenzoyl)ethyl] Acetamide [Cpd. 113a]”, for which the IC50 was not above 10 µM.
For the substance “2′,2′-Dichloro-N-[3-[3-(2-chloro-6-tbutoxycarbonylphenyl)-5-isoxazolyl]phenyl]N-[2-(4-fluorobenzoyl)ethyl] Acetamide [Cpd. 128a]”, the concentration for half-maximal inhibition (IC50) was not above 10 µM.
On to “2′,2′-Dichloro-N-[3-[3-(2-cyclopropyl-6-trifluoromethylphenyl)-5-isoxazolyl]phenyl]N-[2-(4-fluorobenzoyl)ethyl] Acetamide [Cpd. 114a]”, for which the IC50 was not above 10 µM.
The same measure, in the same setting: the figure for “2′,2′-Dichloro-N-[3-[3-[2-chloro-6-(N′-acetyl-4piperdinyloxy)phenyl]-5-isoxazolyl]phenyl]-N-[2-(4-fluorobenzoyl)ethyl] Acetamide [Cpd. 127a]” is not above 10 µM.

Still in this test, the particulars now being: Tables 3-12; 50% reduction in luciferase emission, 5-2 Luc replicon cells; read-out: Replicon (IC50).
With “2,2-dichloro-2-(diethoxyphosphonyl)-N-[3-[3-(2,6-dichlorophenyl)-5-isoxazoyl]phenyl] acetamide [compound 405]”, the IC50 was not above 10 µM.
Still for that read-out and setting: the figure for “2,2-dichloro-2-(dihydroxyphosphonyl)-N-[3-[3-(2,6-dichlorophenyl)-5-isoxazoyl]phenyl] acetamide [Cpd. 407]” is more than 10 µM.
Take “2,2-dichloro-N-[3′-[3′-(2′-chloro-6′-tbutoxycarbonylphenyl)-5′-isoxazoyl]phenyl]-N-[(5-isopropyl-1,3-dioxolene-2-one4-yl)methylene] acetamide [Cpd. 36]”: the IC50 was not above 10 µM.
As to “2′,2′-dichloro-2′-(benzyloxycarbonyl)-N-[3-[3-(2,6-dichlorophenyl)-5-isoxazoyl]phenyl] acetamide [Cpd. 17]”, the IC50 is not above 10 µM.
As for “2′,2′-dichloro-2′-(diethoxyphosphonyl)-N-[3-[3-(2-fluoro-6-trifluoromethylphenyl)-5-isoxazoyl]phenyl] acetamide [Cpd. 6]”, the half-maximal inhibitory concentration (IC50) was not above 10 µM.
As for “2′,2′-dichloro-2′-(diisopropoxyphosphonyl)-N-[3-[3-(2,6-dichlorophenyl)-5-isoxazoyl]phenyl] acetamide [Cpd. 4]”, the IC50 is not above 10 µM.
Turning to “2′,2′-dichloro-2′-[(1R, 2S, 5Rkmenthyloxycarbonyl]-N-[3-[3-(2,6-dichlorophenyl)-5-isoxazoyl]phenyl] acetamide [Cpd. 11]”, the concentration for half-maximal inhibition (IC50) is not above 10 µM.
As for “2′-(diethoxyphosphonyl)-2′,2′-difluoro-N-[3-[3-(2,6-dichlorophenyl)-5-isoxazoyl]phenyl] acetamide [Cpd. 3]”, the 50% inhibitory concentration (IC50) was more than 10 µM.
With “2′-chloro-2′-(diethoxyphosphonyl)-2-fluoro-N-[3-[3-(2,6-dichlorophenyl)-5-isoxazoyl]phenyl] acetamide [Cpd. 2]”, the IC50 was more than 10 µM.
